Reference: patent US20130316946A1, “EXTENDED RECOMBINANT POLYPEPTIDE-MODIFIED C-PEPTIDE” (Cebix, Inc., priority 2012, published 2013)

Key:
[1] = in vivo; cited from earlier work
[2] = Pharmacokinetics of unmodified C-peptide in beagle dogs after a single S.C. dose; assay type: in vivo
Description: A pharmacokinetic (PK) study was conducted to determine the C-peptide PK profile with unmodified C-peptide in beagle dogs.
Methods: Two male and one female dog received S.C. the unmodified synthetic human C-peptide (0.5 mg/kg; 0.025 mL/kg) formulated in phosphate buffered saline (20 mg/mL). Dogs were bled by venipuncture and blood samples were collected at predetermined time points over 14 days. Plasma samples were obtained after centrifugation of the blood (3,000 rpm for 10 minutes) and stored at −80° C. until analysis. A CRO with Good Laboratory Practice (GLP) capabilities (MicroConstants, Inc.; San Diego, Calif.) performed the bioanalytical work. Plasma levels of C-peptide were measured by an enzyme-linked immunosorbant assay (ELISA) technique based on a commercial kit for human C-peptide determination (Mercodia; catalog number 10-1136-01) using the manufacturer's instructions. Results were expressed as C-peptide concentrations. For the PK analysis, the below quantitation level (BQL) was treated as zero and nominal time points were used for all calculations. PK parameters were determined by standard model independent methods based on the individual plasma concentration-time data for each animal using model 200 in WinNonlin Professional 5.2.1 (Pharsight Corp., Mountain View, Calif.).

[3] = Stability of C-peptide-XTEN in monkey plasma; assay type: in vitro ADME; conditions: 37° C., over 7 days, SDS PAGE / Western
Description: A fusion protein containing XTEN_AE864 fused to the N-terminus of C-peptide is incubated in monkey plasma and rat kidney lysate for up to 7 days at 37° C. Samples are withdrawn at time 0, Day 1 and Day 7 and analyzed by SDS PAGE followed by detection using Western analysis and detection with antibodies against C-peptide. […] The in vivo stability of the fusion protein is tested in plasma samples wherein the C-peptide_AE864 is immunoprecipitated and analyzed by SDS PAGE as described above.

[4] = Stability of C-peptide-XTEN in rat kidney lysate; assay type: in vitro ADME; conditions: 37° C., over 3 days, SDS PAGE / Western
Description: A fusion protein […] followed by detection using Western analysis and detection with antibodies against C-peptide. […] The in vivo stability of the fusion protein is tested in plasma samples wherein the C-peptide_AE864 is immunoprecipitated and analyzed by SDS PAGE as described above.

Aspart
peak time of effect [1]: around 30 minutes

Glulisine
peak time of effect [1]: around 30 minutes

Regular insulin
onset of action [1]: 30 to 60 min

Glargine insulin
duration of activity [1]: 24 h
peak time of effect [1]: no peak effect

CC(C)C[C@H](NC(=O)[C@H](C)NC(=O)[C@H](CC(C)C)NC(=O)[C@@H]1CCCN1C(=O)[C@H](CCC(N)=O)NC(=O)[C@H](CC(C)C)NC(=O)[C@H](CO)NC(=O)CNC(=O)[C@H](C)NC(=O)CNC(=O)[C@@H]1CCCN1C(=O)CNC(=O)CNC(=O)CNC(=O)[C@H](CC(C)C)NC(=O)[C@H](CCC(=O)O)NC(=O)[C@@H](NC(=O)[C@H](CCC(N)=O)NC(=O)CNC(=O)[C@@H](NC(=O)[C@H](CCC(N)=O)NC(=O)[C@H](CC(C)C)NC(=O)[C@H](CC(=O)O)NC(=O)[C@H](CCC(=O)O)NC(=O)[C@H](C)NC(=O)[C@@H](N)CCC(=O)O)C(C)C)C(C)C)C(=O)N[C@@H](CCC(=O)O)C(=O)NCC(=O)N[C@@H](CO)C(=O)N[C@@H](CC(C)C)C(=O)N[C@@H](CCC(N)=O)C(=O)O [CP-AQ, human C-peptide]
circulating levels of C-peptide below quantitation level (BQL) ([2]; dog, in vivo, sc): BQL within half a day
tolerability (clinical abnormalities) ([2]; dogs, single S.C. dose 0.5 mg/kg): well tolerated

Lispro
peak time of effect [1]: around 30 minutes

B1: AE864: XTEN polypeptide of 864 amino acid residues, SEQ ID NO:70 (protein)
chain: GSPAGSPTSTEEGTSESATPESGPGTSTEPSEGSAPGSPAGSPTSTEEGTSTEPSEGSAPGTSTEPSEGSAPGTSESATPESGPGSEPATSGSETPGSEPATSGSETPGSPAGSPTSTEEGTSESATPESGPGTSTEPSEGSAPGTSTEPSEGSAPGSPAGSPTSTEEGTSTEPSEGSAPGTSTEPSEGSAPGTSESATPESGPGTSTEPSEGSAPGTSESATPESGPGSEPATSGSETPGTSTEPSEGSAPGTSTEPSEGSAPGTSESATPESGPGTSESATPESGPGSPAGSPTSTEEGTSESATPESGPGSEPATSGSETPGTSESATPESGPGTSTEPSEGSAPGTSTEPSEGSAPGTSTEPSEGSAPGTSTEPSEGSAPGTSTEPSEGSAPGTSTEPSEGSAPGSPAGSPTSTEEGTSTEPSEGSAPGTSESATPESGPGSEPATSGSETPGTSESATPESGPGSEPATSGSETPGTSESATPESGPGTSTEPSEGSAPGTSESATPESGPGSPAGSPTSTEEGSPAGSPTSTEEGSPAGSPTSTEEGTSESATPESGPGTSTEPSEGSAPGTSESATPESGPGSEPATSGSETPGTSESATPESGPGSEPATSGSETPGTSESATPESGPGTSTEPSEGSAPGSPAGSPTSTEEGTSESATPESGPGSEPATSGSETPGTSESATPESGPGSPAGSPTSTEEGSPAGSPTSTEEGTSTEPSEGSAPGTSESATPESGPGTSESATPESGPGTSESATPESGPGSEPATSGSETPGSEPATSGSETPGSPAGSPTSTEEGTSTEPSEGSAPGTSTEPSEGSAPGSEPATSGSETPGTSESATPESGPGTSTEPSEGSAP
modifications: AE864 XTEN polypeptide
degradation in monkey plasma [3]: negligible signs of degradation
degradation in rat kidney lysate [4]: rapidly degraded
